Values belong to the compound of their own block, whether it stands above or below them.
How the values were obtained:
[1] = Liver microsome stability, monkey; assay type: in vitro ADME; set-up: key to Monkey T1/2 (min): +, Extrapolated; conditions: for half-life: monkey, liver microsomes
From the text: (§1) Representative Metabolic Stability Data I; +, Extrapolated.

[2] = Hepatocyte stability, rat; assay type: in vitro ADME; set-up: key to Rat T1/2 (min): +, Extrapolated; conditions: for half-life: rat, hepatocytes, read-out: Rat T1/2; for Rat T1/2 (min): extrapolated
From the text: (§2) Representative Metabolic Stability Data II, +, Extrapolated.

ferroptosis = experiment: Ferroptosis inhibitor activity; assay type: cell-based; conditions: 1 uM threshold activity extrapolated
From the text: Ferroptosis Inhibitor Activity 1 Um Threshold Activity Extrapolated

[3] = Liver microsome stability, rat; assay type: in vitro ADME; conditions: liver microsomes
From the text: as §1

[4] = Liver microsome stability, human; assay type: in vitro ADME; conditions: liver microsomes, liver microsome stability, read-out: Human T1/2
From the text: as §1

[5] = Liver microsome stability, mini-pig; assay type: in vitro ADME; set-up: key to mini-pig T1/2 (min): +, Extrapolated; conditions: for mini-pig T1/2 (min): extrapolated
From the text: as §1

[6] = Liver microsome stability, dog; assay type: in vitro ADME; set-up: key to Dog T1/2 (min): +, Extrapolated; conditions: for half-life: dog, liver microsomes
From the text: as §1

[7] = Hepatocyte stability, monkey; assay type: in vitro ADME; set-up: key to Monkey T1/2 (min): +, Extrapolated; conditions: for half-life: monkey, hepatocytes, read-out: Monkey T1/2; for Monkey T1/2 (min): extrapolated
From the text: as §2

necrosis = experiment: Necrosis inhibitory activity (cell necrosis / cell viability assay); assay type: cell-based; conditions: Necrosis Inhibitory Activity, given as range; read-out: EC50
From the text: Necrosis Inhibitory Activity
Representative IC50 of hRIP1 Kinase Assay Correlated with Our IC50 of Cell Necrosis Assay: […]

[8] = Hepatocyte stability, human; assay type: in vitro ADME; set-up: key to Human T1/2 (min): +, Extrapolated; conditions: for half-life: human, hepatocytes, read-out: Human T1/2; for Human T1/2 (min): extrapolated
From the text: as §2

[9] = Hepatocyte stability, dog; assay type: in vitro ADME; set-up: key to Dog T1/2 (min): +, Extrapolated; conditions: for half-life: dog, hepatocytes, read-out: Dog T1/2; for Dog T1/2 (min): extrapolated
From the text: as §2

[10] = Liver microsome stability, mouse; assay type: in vitro ADME; conditions: liver microsomes
From the text: as §1

[11] = Hepatocyte stability, mouse; assay type: in vitro ADME; set-up: key to Mouse T1/2 (min): +, Extrapolated; conditions: for half-life: mouse, hepatocytes, read-out: Mouse T1/2; for Mouse T1/2 (min): extrapolated
From the text: as §2

PK in rat = experiment: PK in rat; set-up: species or system SD rat; conditions: Sprague-Dawley, in vivo; for bioavailability / half-life: rat
From the text: Representative PK Date of Pro-Drug Compounds

PK in mouse = conditions: in vivo
HT-29 = experiment: EC50 in HT-29; assay type: cell-based; conditions: Homo sapiens
[12] = Hepatocyte stability, mini-pig; assay type: in vitro ADME; set-up: key to mini-pig T1/2 (min): +, Extrapolated; conditions: for mini-pig T1/2 (min): extrapolated
From the text: as §2

PK in monkey = conditions: in vivo
PK in dog = conditions: in vivo
[13] = liver microsome stability, read-out: Monkey T1/2
[14] = liver microsome stability, read-out: Rat T1/2
[15] = liver microsome stability, read-out: Dog T1/2
[16] = liver microsome stability, read-out: Mouse T1/2
[17] = po, 60 mg/kg, SD rat, dose 60 mg/Kg micropower
[18] = Hepatocyte Stability, comparison table
[19] = po, 10 mg/kg, SD rat, PO 10 mg/kg
[20] = liver microsome stability, extrapolated

half-life [1, 13]: 4.97 min
half-life ([2]; Hepatocyte stability): 33.4 min
EC50 (ferroptosis): 1 to 10 µM
half-life [3, 14]: 23.3 min
half-life [4]: 136 min
mini-pig T1/2 (min) [5]: +
half-life [6, 15]: 2.31 min
half-life ([7]; Hepatocyte stability): 19.3 min
half-life ([8]; Hepatocyte stability): 110 min
half-life ([9]; Hepatocyte stability): 8.43 min
half-life [10, 16]: 21.1 min
half-life ([11]; Hepatocyte stability): 21 min
AUC (PK in rat; SD rat, PO, dose 60 mg/Kg micropower): 8.34 µg·h/mL
bioavailability (PK in rat; [17]): 74.1%
half-life (PK in rat; [17]): 171 min
Structure (SMILES): [2H]CC([2H])C(C)(C)C(=O)N(O)Cc1cc(F)cc(F)c1 (stereo not drawn) [Compound 26, N-(3,5-difluorobenzyl)-N-hydroxy-2,2-dimethylbutanamide-3,4-d2]
EC50 (necrosis): 0.001 to 1 µM

half-life ([1]; comparison table with WO2016/101885 compounds, read-out: Monkey Liver Microsome T1/2): 3 min
half-life [1, 13]: 2.95 min
AUC(0-inf) (PK in mouse; IV 2 mg/kg): 0.323 µg·h/mL
clearance (PK in mouse; IV 2 mg/kg): 6.18 L/h/kg
half-life (PK in mouse; IV 2 mg/kg): 186 min
Vd (PK in mouse; IV 2 mg/kg, read-out: Vdss): 3.08 L/kg
AUC(0-inf) (PK in mouse; PO 10 mg/kg): 0.349 µg·h/mL
Cmax (PK in mouse; PO 10 mg/kg): 0.249 µg/mL
bioavailability (PK in mouse; PO 10 mg/kg): 21.6%
half-life (PK in mouse; PO 10 mg/kg): 96 min
half-life [2, 18]: 14 min
half-life ([2]; Hepatocyte stability): 14.2 min
EC50 (HT-29): 25 nM
half-life ([3]; comparison table with WO2016/101885 compounds, read-out: Rat Liver Microsome T1/2): 25 min
half-life [3, 14]: 25.1 min
half-life ([12]; minipig, hepatocytes, read-out: mini-pig T1/2): 23.1 min
half-life [4]: 204 min
half-life ([5]; minipig, liver microsomes, read-out: mini-pig T1/2): 53.5 min
half-life ([6]; comparison table with WO2016/101885 compounds, read-out: Dog Liver Microsome T1/2): 7 min
half-life [6, 15]: 7.1 min
half-life [7, 18]: 19 min
half-life ([7]; Hepatocyte stability): 18.9 min
half-life [8, 18]: 73 min
half-life ([8]; Hepatocyte stability): 73.1 min
AUC(0-inf) (PK in monkey; IV 2 mg/kg): 1.94 µg·h/mL
clearance (PK in monkey; IV 2 mg/kg): 1.06 L/h/kg
half-life (PK in monkey; IV 2 mg/kg): 46.2 min
Vd (PK in monkey; IV 2 mg/kg, read-out: Vdss): 0.86 L/kg
AUC(0-inf) (PK in monkey; PO 10 mg/kg): 0.374 µg·h/mL
Cmax (PK in monkey; PO 10 mg/kg): 0.185 µg/mL
bioavailability (PK in monkey; PO 10 mg/kg): 2.6%
half-life (PK in monkey; PO 10 mg/kg): 43.8 min
half-life [9, 18]: 14 min
half-life ([9]; Hepatocyte stability): 13.9 min
half-life ([10]; comparison table with WO2016/101885 compounds, read-out: Mouse Liver Microsome T1/2): 32 min
half-life [10, 16]: 32.5 min
half-life [11, 18]: 24 min
half-life ([11]; Hepatocyte stability): 24.4 min
AUC(0-inf) (PK in rat; Rat, IV 2 mg/kg): 0.52 µg·h/mL
clearance (PK in rat; Rat, IV 2 mg/kg): 3.84 L/h/kg
Vd (PK in rat; Rat, IV 2 mg/kg, read-out: Vdss): 1.2 L/kg
AUC(0-inf) (PK in rat; Rat, PO 10 mg/kg): 0.214 µg·h/mL
Cmax (PK in rat; Rat, PO 10 mg/kg): 0.148 µg/mL
AUC (PK in rat; SD rat, PO 10 mg/kg): 0.0299 µg·h/mL
half-life (PK in rat; iv, 2 mg/kg, IV 2 mg/kg): 18 min
bioavailability (PK in rat; po, 10 mg/kg, PO 10 mg/kg): 1.2%
half-life (PK in rat; po, 10 mg/kg, PO 10 mg/kg): 48 min
bioavailability (PK in rat; [19]): 1.15%
half-life (PK in rat; [19]): 38.4 min
AUC(0-inf) (PK in dog; IV 3 mg/kg): 1.96 µg·h/mL
clearance (PK in dog; IV 3 mg/kg): 1.54 L/h/kg
half-life (PK in dog; IV 3 mg/kg): 72 min
Vd (PK in dog; IV 3 mg/kg, read-out: Vdss): 1.24 L/kg
AUC(0-inf) (PK in dog; PO 10 mg/kg): 0.136 µg·h/mL
Cmax (PK in dog; PO 10 mg/kg): 0.171 µg/mL
bioavailability (PK in dog; PO 10 mg/kg): 1.95%
half-life (PK in dog; PO 10 mg/kg): 81 min
Structure (SMILES): CCC(C)(C)C(=O)N(O)Cc1ccccc1 [Compound 92, reference compound]

half-life [1, 13]: 3.3 min
Rat T1/2 (min) ([2]; Hepatocyte stability): +
EC50 (ferroptosis): 1 to 10 µM
half-life [3, 14]: 28.6 min
mini-pig T1/2 (min) [12]: +
half-life [4]: 195 min
mini-pig T1/2 (min) [5]: +
half-life [6, 15]: 3.5 min
Monkey T1/2 (min) ([7]; Hepatocyte stability): +
Human T1/2 (min) ([8]; Hepatocyte stability): +
Dog T1/2 (min) ([9]; Hepatocyte stability): +
half-life [10, 16]: 33.6 min
Mouse T1/2 (min) ([11]; Hepatocyte stability): +
AUC (PK in rat; SD rat, PO 10 mg/kg): 0.318 µg·h/mL
bioavailability (PK in rat; [19]): 14.8%
half-life (PK in rat; [19]): 37 min
Structure (SMILES): [2H]C([2H])C([2H])([2H])C(C)(C)C(=O)N(O)Cc1ccccc1 [Compound 28, N-benzyl-N-hydroxy-2,2-dimethylbutanamide-3,3,4,4-d4]
EC50 (necrosis): 0.001 to 1 µM

Monkey T1/2 (min) [1, 20]: +
Rat T1/2 (min) ([2]; Hepatocyte stability): +
EC50 (ferroptosis): 1 to 10 µM
half-life [3, 14]: 41.1 min
mini-pig T1/2 (min) [12]: +
half-life [4]: 96.8 min
mini-pig T1/2 (min) [5]: +
Dog T1/2 (min) [6, 20]: +
Monkey T1/2 (min) ([7]; Hepatocyte stability): +
Human T1/2 (min) ([8]; Hepatocyte stability): +
Dog T1/2 (min) ([9]; Hepatocyte stability): +
half-life [10, 16]: 16.6 min
Mouse T1/2 (min) ([11]; Hepatocyte stability): +
AUC (PK in rat; SD rat, PO 10 mg/kg): 0.923 µg·h/mL
bioavailability (PK in rat; [19]): 20.3%
half-life (PK in rat; [19]): 293 min
Structure (SMILES): CCC(C)(C)C(=O)N(O)Cc1ccc(Cl)cc1 [Compound 15, N-(4-chlorobenzyl)-N-hydroxy-2,2-dimethylbutanamide]
EC50 (necrosis): 0.001 to 1 µM

half-life [1, 13]: 0.6 min
Rat T1/2 (min) ([2]; Hepatocyte stability): +
EC50 (ferroptosis): 1 to 10 µM
half-life [3, 14]: 19.8 min
mini-pig T1/2 (min) [12]: +
half-life [4]: 178 min
mini-pig T1/2 (min) [5]: +
half-life [6, 15]: 1.5 min
Monkey T1/2 (min) ([7]; Hepatocyte stability): +
Human T1/2 (min) ([8]; Hepatocyte stability): +
Dog T1/2 (min) ([9]; Hepatocyte stability): +
half-life [10, 16]: 26.5 min
Mouse T1/2 (min) ([11]; Hepatocyte stability): +
AUC (PK in rat; SD rat, PO 10 mg/kg): 0.0786 µg·h/mL
bioavailability (PK in rat; [19]): 5.29%
half-life (PK in rat; [19]): 55.2 min
Structure (SMILES): [2H]CC([2H])C(C)(C)C(=O)N(O)Cc1ccccc1 (stereo not drawn) [Compound 27, N-benzyl-N-hydroxy-2,2-dimethylbutanamide-3,4-d2]
EC50 (necrosis): 0.001 to 1 µM

half-life [1, 13]: 0.3 min
Rat T1/2 (min) ([2]; Hepatocyte stability): +
EC50 (ferroptosis): 1 to 10 µM
half-life [3, 14]: 28.9 min
mini-pig T1/2 (min) [12]: +
half-life [4]: 154 min
mini-pig T1/2 (min) [5]: +
half-life [6, 15]: 6 min
Monkey T1/2 (min) ([7]; Hepatocyte stability): +
Human T1/2 (min) ([8]; Hepatocyte stability): +
Dog T1/2 (min) ([9]; Hepatocyte stability): +
half-life [10, 16]: 25.4 min
Mouse T1/2 (min) ([11]; Hepatocyte stability): +
Structure (SMILES): C=CC(C)(C)C(=O)N(O)Cc1ccccc1 [Compound 19, N-benzyl-N-hydroxy-2,2-dimethylbut-3-enamide]
EC50 (necrosis): 0.001 to 1 µM

— patent publication US12129221B2, “Difluoro phenyl amide RIP1 inhibitor” (SIRONAX LTD, priority 2018, dated 2024)
